# Measurements: ChEMBL document CHEMBL1201862, “PubChem BioAssay data set” (2004)
# Structures can show the parent of a compound that is named as a salt. Activity calls are given as the source filed them.
# Tests used:
# [1] = bead-based luminescence quenchers, dual-tagged ARNT – biochemical, AlphaScreen, cherry-pick, artefact control for ARNT-TACC3 interaction inhibitor project, dose response (AID 651705); assay type: functional;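 note: AlphaScreen bead proximity signal that flags compounds interfering with the detection technology; potency reflects signal decrease which marks the compound as an assay artifact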
# [2] = biological target: Arf-GAP with SH3 domain, ANK repeat and PH domain-containing protein 1 (Homo sapiens, UniProt Q9ULH1); assay type: functional;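 note: biochemical fluorescence polarization dose–response screen measuring inhibition of ASAP1; ASAP1 GAP domain stimulating GTP hydrolysis by truncated human ARF1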
# [3] = biological target: T1, Carboxy-terminal domain RNA polymerase II polypeptide A small phosphatase 1 (Homo sapiens, UniProt Q9GZU7); assay: CTDSP1 inhibitors, concentration-response, biochemical, absorbance readout, ultra-high-throughput screen actives (AID 540297); assay type: functional
# T1 sequence (Q9GZU7 whole entry): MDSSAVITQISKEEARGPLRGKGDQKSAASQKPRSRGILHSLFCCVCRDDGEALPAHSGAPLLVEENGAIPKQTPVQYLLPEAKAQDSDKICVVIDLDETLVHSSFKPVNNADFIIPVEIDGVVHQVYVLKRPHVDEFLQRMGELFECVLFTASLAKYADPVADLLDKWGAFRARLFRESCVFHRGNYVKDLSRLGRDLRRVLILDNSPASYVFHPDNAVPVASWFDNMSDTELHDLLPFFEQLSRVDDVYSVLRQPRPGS
# [4] = NIH-3T3 fibroblast cytotoxicity, dose response, cytotoxicity control, cell-based, fluorescence, Alamar Blue, secondary assay (AID 2327); assay type: functional;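 note: NIH-3T3 mouse fibroblasts cultured with fluconazole at 8 µg/mL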
# [5] = biological target: T2, Mitochondrial peptide methionine sulfoxide reductase (Bos taurus, UniProt P54149); assay: Absorbance-based biochemical high throughput dose response assay for activators of Methionine sulfoxide reductase A (MsrA).; assay type: functional
# T2 sequence (P54149 whole entry): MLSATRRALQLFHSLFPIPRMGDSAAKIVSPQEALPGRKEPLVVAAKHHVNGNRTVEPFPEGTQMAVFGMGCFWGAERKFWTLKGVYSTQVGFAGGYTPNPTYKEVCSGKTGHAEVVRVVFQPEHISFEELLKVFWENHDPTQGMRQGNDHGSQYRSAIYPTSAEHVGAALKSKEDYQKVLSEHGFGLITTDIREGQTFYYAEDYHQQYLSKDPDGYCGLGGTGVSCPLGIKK
# [6] = fluconazole-exposed Candida albicans growth modulators – fluorescence, retest, confirmation (AID 2467); assay type: functional, cell-based
# [7] = biological target: T3, Small ubiquitin-related modifier 1 (Homo sapiens, UniProt P63165); assay: SUMO1 protein-protein binding blockers, potency – biochemical, FRET, dose response (AID 624383); assay type: functional; details: read-out: IC50_Mean
# [8] = biological target: T3, Small ubiquitin-related modifier 1; assay: SUMO1 protein interaction blockers, potency – biochemical, fluorescence polarization, uHTS hits, dose response (AID 624382); assay type: functional; details: read-out: IC50_Mean
# [9] = biological target: T4, Sentrin-specific protease 1 (Homo sapiens, UniProt Q9P0U3); assay: SENP1 catalytic domain blockers, concentration series – biochemical, kinetic FRET, dose response (AID 651697); assay type: functional; details: read-out: IC50_Mean
# [10] = biological target: T4, Sentrin-specific protease 1; assay: Dose response confirmation of small molecule inhibitors of the catalytic domain of the SUMO protease, SENP1 in a FRET assay.; assay type: functional; details: read-out: IC50_Mean
# Steroidogenic factor 1 = Steroidogenic factor 1 (Homo sapiens, UniProt Q13285); assay: Counterscreen for inverse agonists of the liver receptor homolog-1 (LRH-1; NR5A2): Luminescence-based cell-based high throughput dose response assay to identify inverse agonists of the Steroidogenic Factor 1 Nuclear Receptor (SF1; NR5A1).; assay type: functional
# [11] = nonselective StAR promoter luciferase inhibitors – cell-based, luminescence, luciferase reporter, counter-screen for LRH-1 inverse agonist project, dose response (AID 651969); assay type: functional
# [12] = biological target: Nuclear receptor subfamily 5 group A member 2 (Homo sapiens, UniProt O00482); assay type: functional, cell-based;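 note: HEK293T cells transfected with LRH-1 and a StAR promoter luciferase reporter; potency for inhibitors that lower LRH-1 driven reporter light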
# [13] = biological target: T5, Probable nicotinate-nucleotide adenylyltransferase (Staphylococcus aureus (strain N315), UniProt P65502); assay type: functional, Staphylococcus aureus subsp. aureus N315;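 for IC50 Mean: confirmatory dose-response retesting of NadD inhibitor hits first found in an ultra-high-throughput screen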
# [14] = biological target: Induced myeloid leukemia cell differentiation protein Mcl-1 (Homo sapiens, UniProt Q07820); assay type: functional
# [15] = biological target: DNA (cytosine-5)-methyltransferase 1 (Homo sapiens, UniProt P26358); assay: inhibition of DNA methylation by DNMT1 – biochemical, fluorescent molecular beacon, confirmation (AID 602386); assay type: functional
# [16] = biological target: T5, Probable nicotinate-nucleotide adenylyltransferase; assay type: functional, Staphylococcus aureus subsp. aureus N315; details: read-out: IC50_Mean
# [17] = biological target: T6, Tyrosine-protein phosphatase non-receptor type 22 (Homo sapiens, UniProt Q9Y2R2); assay: PTPN22 enzyme inhibitors – biochemical, fluorescence, LYP catalytic domain, selectivity assay for LMPTP inhibitor project, dose response (AID 652006); assay type: functional; details: read-out: IC50_Mean
# T6 sequence (Q9Y2R2 whole entry): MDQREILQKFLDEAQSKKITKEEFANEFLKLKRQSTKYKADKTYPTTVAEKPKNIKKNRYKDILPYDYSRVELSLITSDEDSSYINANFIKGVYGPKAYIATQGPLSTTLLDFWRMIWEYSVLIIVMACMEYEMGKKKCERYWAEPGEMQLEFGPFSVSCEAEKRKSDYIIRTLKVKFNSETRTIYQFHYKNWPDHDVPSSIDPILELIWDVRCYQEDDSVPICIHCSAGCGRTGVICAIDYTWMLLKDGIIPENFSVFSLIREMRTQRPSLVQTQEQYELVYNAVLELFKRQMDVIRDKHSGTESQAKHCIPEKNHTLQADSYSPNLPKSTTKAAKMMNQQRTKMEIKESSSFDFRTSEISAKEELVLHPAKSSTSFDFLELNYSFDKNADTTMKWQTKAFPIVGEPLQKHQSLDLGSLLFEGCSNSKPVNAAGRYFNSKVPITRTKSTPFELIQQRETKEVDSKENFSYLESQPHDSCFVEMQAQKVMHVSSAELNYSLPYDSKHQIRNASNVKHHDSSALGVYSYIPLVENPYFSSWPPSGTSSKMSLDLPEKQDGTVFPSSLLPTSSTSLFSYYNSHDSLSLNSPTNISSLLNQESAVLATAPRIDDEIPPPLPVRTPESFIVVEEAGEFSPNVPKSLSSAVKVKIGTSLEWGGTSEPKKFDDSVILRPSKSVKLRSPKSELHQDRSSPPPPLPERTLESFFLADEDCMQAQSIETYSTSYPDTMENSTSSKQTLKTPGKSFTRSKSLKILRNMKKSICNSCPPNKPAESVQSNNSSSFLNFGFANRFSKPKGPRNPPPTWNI
# [18] = biological target: T7, Low molecular weight phosphotyrosine protein phosphatase (Homo sapiens, UniProt P24666); assay type: functional; details: read-out: IC50_Mean;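 note: Dose-response confirmation assay measuring inhibition of LMPTP enzyme activity by fluorescence intensity read-out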
# T7 sequence (P24666 whole entry): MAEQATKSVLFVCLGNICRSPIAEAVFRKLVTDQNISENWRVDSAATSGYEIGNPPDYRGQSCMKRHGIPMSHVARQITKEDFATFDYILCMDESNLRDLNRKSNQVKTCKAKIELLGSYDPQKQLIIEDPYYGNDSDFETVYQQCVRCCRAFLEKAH
# [19] = biological target: DNA repair and recombination protein RAD54-like (Homo sapiens, UniProt Q92698); assay: RAD54 Holliday junction migration blockers – biochemical, fluorescence, cherry-picked samples, dose series, confirmation (AID 651657); assay type: functional
# [20] = biological target: T8, DNA repair protein RAD52 homolog (Homo sapiens, UniProt P43351); assay type: functional, biochemical
# T8 sequence (P43351 whole entry): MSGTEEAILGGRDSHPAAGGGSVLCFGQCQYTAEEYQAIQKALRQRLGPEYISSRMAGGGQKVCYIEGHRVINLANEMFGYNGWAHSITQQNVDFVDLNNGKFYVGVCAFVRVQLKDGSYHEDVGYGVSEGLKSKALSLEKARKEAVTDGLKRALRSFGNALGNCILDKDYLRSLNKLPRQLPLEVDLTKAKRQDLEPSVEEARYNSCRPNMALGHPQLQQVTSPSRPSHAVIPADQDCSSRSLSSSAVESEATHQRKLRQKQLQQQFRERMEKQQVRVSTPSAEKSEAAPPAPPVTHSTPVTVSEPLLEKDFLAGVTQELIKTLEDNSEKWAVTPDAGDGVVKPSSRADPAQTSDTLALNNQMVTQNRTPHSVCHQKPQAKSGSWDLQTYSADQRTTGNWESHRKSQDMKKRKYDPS
# [21] = biological target: ATP-dependent translocase ABCB1 (Homo sapiens, UniProt P08183); assay: inhibition of P-gp mediated JC-1 efflux – Jurkat-DNR cells, flow cytometry, dose response (AID 1689); assay type: functional
# Protein skinhead-1 = biological target: T9, Protein skinhead-1 (Caenorhabditis elegans, UniProt P34707); assay type: functional
# T9 sequence (P34707 whole entry): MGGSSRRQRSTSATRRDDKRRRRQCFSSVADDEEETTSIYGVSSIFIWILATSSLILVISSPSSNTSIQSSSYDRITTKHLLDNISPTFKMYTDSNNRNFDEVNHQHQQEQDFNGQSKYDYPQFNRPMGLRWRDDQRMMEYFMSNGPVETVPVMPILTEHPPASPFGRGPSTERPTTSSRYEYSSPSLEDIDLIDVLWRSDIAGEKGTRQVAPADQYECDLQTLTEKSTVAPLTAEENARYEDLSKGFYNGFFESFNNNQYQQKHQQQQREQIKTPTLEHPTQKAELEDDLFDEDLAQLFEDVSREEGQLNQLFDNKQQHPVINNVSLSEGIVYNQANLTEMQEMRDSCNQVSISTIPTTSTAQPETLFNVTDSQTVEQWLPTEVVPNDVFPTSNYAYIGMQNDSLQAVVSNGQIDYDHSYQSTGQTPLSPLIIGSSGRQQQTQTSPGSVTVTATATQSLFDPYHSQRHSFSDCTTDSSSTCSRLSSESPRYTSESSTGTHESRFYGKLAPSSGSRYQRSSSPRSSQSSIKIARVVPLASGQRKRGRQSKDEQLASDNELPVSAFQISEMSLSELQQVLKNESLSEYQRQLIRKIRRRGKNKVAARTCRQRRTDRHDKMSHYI
# [22] = Luminescence Cell-Based Dose Response to Identify Activators of 5'UTR Stem-Loop Driven Prion Protein mRNA Translation in H4-C Neuroglioblastoma Cells. [Related pubchem assays: 1829 (Project Summary), 1814 (Primary HTS)]; assay type: functional
# [23] = Luminescence Cell-Based Dose Response HTS to Identify Activators of Luciferase Translation or Activity in H4 […] Cells. [Related pubchem assays: 1829 (Project Summary), 1814 (Primary HTS)]; assay type: functional
# [24] = biological target: Broad substrate specificity ATP-binding cassette transporter ABCG2 (Homo sapiens, UniProt Q9UNQ0); assay: blockers of JC-1 export by ABCG2 – Ig-MXP3 cells, flow cytometry, dose response (AID 1690); assay type: functional
# [25] = Luminescence Cell-Based Dose Confirmation to Identify Activators of 5'UTR Stem-Loop Driven Alpha-Synuclein mRNA Translation in H4 Neuroglioblastoma Cells. [Related pubchem assays: 1829 (Project Summary), 1814 (Primary HTS)]; assay type: functional
# [26] = Luminescence Cell-Based Dose Response to Identify Activators of Luciferase Translation or Activity in H4-C Neuroglioblastoma Cells. [Related pubchem assays: 1829 (Project Summary), 1814 (Primary HTS)]; assay type: functional
# H4 = assay: Luminescence Cell-Based Dose Response HTS to Identify Activators of 5'UTR Stem-Loop Driven Prion Protein mRNA Translation in H4 Neuroglioblastoma Cells. [Related pubchem assays: 1829 (Project Summary), 1814 (Primary HTS)]; assay type: functional; details: Homo sapiens
# T3 sequence (P63165 whole entry): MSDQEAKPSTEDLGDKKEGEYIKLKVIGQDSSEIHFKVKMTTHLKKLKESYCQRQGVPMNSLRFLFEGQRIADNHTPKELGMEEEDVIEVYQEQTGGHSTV
# T5 sequence (P65502 whole entry): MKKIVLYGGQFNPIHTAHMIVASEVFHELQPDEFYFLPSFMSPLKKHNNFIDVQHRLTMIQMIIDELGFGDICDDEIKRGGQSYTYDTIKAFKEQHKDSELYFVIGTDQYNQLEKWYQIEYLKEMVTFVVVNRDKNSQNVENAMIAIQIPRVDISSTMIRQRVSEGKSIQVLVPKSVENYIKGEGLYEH
# T4 sequence (Q9P0U3 whole entry, the tested form may be a part): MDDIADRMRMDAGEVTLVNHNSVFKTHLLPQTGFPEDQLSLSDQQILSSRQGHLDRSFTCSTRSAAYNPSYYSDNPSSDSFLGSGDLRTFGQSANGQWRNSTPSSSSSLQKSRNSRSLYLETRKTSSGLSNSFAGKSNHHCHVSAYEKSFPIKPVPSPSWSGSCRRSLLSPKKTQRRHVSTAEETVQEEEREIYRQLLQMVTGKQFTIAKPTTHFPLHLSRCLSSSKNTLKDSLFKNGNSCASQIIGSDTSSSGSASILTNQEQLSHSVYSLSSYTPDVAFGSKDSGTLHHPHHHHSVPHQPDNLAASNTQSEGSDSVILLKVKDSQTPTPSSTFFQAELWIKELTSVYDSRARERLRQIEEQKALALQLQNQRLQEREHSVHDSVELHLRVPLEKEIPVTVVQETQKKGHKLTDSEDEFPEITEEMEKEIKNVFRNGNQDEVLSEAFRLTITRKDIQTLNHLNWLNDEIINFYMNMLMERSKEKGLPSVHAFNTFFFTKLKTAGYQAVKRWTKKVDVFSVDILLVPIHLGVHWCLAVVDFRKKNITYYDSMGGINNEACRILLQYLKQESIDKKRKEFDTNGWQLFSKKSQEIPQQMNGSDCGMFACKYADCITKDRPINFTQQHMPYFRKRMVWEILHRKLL
# Chain of Broad substrate specificity ATP-binding cassette transporter ABCG2 (Q9UNQ0 whole entry): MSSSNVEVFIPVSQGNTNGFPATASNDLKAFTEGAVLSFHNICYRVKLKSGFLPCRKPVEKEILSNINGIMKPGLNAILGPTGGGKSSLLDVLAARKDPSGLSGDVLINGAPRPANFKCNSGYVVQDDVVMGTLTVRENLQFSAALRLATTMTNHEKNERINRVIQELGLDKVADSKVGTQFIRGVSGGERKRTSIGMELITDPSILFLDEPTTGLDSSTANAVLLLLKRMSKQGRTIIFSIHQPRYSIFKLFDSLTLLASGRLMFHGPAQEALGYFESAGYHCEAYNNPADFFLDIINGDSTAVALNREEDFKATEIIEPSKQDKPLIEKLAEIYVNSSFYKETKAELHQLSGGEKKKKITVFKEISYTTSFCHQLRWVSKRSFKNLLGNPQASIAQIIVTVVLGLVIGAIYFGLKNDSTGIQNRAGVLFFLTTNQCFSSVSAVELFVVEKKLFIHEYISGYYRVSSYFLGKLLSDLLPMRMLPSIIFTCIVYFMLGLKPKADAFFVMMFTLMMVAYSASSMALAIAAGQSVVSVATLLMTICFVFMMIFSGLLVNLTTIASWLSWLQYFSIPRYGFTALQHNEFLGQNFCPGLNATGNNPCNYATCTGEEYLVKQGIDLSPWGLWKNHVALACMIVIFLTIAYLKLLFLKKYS
# Chain of DNA repair and recombination protein RAD54-like (Q92698 whole entry): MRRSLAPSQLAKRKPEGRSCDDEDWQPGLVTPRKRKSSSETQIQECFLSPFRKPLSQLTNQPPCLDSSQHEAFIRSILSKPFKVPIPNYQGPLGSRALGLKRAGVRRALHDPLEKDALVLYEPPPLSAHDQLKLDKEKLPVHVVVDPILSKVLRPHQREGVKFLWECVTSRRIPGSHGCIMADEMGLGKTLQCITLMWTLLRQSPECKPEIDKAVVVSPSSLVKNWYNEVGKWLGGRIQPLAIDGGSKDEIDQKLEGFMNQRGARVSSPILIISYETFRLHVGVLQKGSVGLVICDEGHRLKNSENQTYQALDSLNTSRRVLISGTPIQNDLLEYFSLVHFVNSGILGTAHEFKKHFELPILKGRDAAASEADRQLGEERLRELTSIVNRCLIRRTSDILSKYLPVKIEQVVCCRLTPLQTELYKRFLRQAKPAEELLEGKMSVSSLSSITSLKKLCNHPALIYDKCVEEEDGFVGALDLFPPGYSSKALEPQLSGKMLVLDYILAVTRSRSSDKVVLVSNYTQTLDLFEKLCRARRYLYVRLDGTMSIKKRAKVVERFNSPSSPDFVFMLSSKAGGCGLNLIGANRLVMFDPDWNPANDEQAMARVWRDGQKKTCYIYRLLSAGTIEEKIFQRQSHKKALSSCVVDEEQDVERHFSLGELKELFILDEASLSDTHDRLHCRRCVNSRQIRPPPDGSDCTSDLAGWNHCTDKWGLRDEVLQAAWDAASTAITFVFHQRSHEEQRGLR
# Chain of ATP-dependent translocase ABCB1 (P08183 whole entry): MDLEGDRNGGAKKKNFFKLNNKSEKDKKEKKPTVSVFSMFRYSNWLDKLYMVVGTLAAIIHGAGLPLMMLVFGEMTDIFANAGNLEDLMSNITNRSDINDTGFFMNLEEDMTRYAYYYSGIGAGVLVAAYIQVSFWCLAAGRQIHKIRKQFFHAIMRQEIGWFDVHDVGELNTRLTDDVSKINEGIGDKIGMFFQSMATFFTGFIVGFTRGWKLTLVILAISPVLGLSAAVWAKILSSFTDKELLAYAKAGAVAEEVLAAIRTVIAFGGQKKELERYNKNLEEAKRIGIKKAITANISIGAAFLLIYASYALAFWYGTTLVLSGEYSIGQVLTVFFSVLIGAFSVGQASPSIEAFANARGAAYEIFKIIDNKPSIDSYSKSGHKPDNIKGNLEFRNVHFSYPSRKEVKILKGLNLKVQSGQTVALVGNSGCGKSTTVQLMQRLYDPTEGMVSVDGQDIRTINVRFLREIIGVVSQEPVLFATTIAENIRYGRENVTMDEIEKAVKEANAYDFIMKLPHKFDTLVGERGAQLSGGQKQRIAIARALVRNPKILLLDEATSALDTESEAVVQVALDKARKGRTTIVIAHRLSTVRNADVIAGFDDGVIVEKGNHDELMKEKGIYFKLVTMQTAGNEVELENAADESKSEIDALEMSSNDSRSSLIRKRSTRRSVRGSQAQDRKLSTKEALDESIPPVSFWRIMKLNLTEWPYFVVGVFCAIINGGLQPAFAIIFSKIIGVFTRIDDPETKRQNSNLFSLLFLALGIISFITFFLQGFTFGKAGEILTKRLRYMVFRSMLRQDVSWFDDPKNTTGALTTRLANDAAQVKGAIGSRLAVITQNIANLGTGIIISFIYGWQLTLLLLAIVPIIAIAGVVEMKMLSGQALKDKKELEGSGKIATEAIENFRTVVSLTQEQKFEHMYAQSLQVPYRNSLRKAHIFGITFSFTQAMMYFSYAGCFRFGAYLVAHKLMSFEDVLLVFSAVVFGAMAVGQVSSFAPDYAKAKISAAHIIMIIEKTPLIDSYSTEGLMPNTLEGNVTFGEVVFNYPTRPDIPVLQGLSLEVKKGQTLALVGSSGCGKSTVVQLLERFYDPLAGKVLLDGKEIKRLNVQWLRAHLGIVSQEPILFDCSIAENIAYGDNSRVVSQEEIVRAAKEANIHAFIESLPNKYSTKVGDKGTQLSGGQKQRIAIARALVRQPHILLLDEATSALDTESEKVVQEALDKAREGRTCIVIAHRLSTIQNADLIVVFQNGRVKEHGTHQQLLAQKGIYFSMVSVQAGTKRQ
# Chain of Steroidogenic factor 1 (Q13285 whole entry): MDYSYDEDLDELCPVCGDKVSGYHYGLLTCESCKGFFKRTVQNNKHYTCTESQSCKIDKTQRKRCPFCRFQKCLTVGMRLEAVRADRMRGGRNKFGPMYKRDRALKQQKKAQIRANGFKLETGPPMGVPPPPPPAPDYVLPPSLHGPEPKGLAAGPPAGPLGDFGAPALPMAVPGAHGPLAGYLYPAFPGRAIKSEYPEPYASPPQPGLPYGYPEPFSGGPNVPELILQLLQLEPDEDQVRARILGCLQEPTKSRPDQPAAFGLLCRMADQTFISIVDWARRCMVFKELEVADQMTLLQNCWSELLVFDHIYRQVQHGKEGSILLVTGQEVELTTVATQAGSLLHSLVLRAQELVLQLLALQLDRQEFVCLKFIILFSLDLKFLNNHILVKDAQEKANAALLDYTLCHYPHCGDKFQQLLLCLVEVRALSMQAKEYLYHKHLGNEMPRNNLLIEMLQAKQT
# Chain of Induced myeloid leukemia cell differentiation protein Mcl-1 (Q07820 whole entry): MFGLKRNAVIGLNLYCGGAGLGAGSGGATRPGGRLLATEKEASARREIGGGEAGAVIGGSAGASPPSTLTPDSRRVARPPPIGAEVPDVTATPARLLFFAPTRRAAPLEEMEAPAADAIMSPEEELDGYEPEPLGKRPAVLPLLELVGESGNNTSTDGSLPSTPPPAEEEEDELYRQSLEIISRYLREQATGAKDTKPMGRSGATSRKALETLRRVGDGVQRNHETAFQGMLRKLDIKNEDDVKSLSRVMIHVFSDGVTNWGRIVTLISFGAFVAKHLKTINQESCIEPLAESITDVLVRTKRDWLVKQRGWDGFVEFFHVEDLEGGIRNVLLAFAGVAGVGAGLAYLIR
# Chain of Nuclear receptor subfamily 5 group A member 2 (O00482 whole entry): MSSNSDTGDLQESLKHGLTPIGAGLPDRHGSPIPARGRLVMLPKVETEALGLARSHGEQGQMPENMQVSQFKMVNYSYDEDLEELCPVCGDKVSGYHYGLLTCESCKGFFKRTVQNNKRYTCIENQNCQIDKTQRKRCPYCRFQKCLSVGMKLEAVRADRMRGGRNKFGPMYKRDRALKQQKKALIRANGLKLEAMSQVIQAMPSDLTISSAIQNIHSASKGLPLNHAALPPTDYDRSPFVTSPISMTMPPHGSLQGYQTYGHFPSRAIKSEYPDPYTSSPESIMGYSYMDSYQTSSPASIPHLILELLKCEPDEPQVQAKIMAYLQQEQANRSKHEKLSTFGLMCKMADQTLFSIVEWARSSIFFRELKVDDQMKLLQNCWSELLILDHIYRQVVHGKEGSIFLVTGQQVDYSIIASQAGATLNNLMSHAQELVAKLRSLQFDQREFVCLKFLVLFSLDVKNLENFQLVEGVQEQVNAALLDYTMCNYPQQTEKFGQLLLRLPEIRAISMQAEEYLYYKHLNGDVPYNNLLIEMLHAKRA
compound,measurement,setting,value
CS(=O)(=O)c1cccc(-c2nnc(NC(=O)c3ccc(S(=O)(=O)N4CCCC4)cc3)o2)c1,AC50,[1],113 µM (active)
COc1ccc2cc(C(=O)Nc3ccc(Cl)cc3)sc(=O)c2c1OC,IC50,[2],12.6 µM (inactive)
same,IC50,[3],3.51 µM (active)
Cc1ccc(C(=O)NC(=S)NNC(=O)CC#N)cc1,EC50,[4],> 150 µM (inconclusive)
same,EC50,[5],> 104 µM (inactive)
same,EC50,[6],> 38 µM (not active)
O=C(COC(=O)c1nc(Cl)ccc1Cl)Nc1ccc2[nH]c(O)nc2c1,IC50,[7],20.8 µM (inactive)
same,IC50,[8],> 66.6 µM (inactive)
C=CCOc1c(Br)cc(/C=C2/N=C(S)N(C(C)=O)C2=O)cc1OC,IC50,[9],7.01 µM (active)
same,IC50,[10],8.78 µM (active)
Cc1cc(OCC(=O)NCc2cccnc2)c2c(C)c(C)c(=O)oc2c1,IC50,Steroidogenic factor 1,2.35 µM (active)
same,IC50,[11],35.9 µM (inactive)
same,IC50,[12],2.88 µM (active)
Cn1c(N)c(C(=O)COC(=O)c2cc(-c3ccco3)nc3ccccc23)c(=O)n(C)c1=O,IC50,[13],6.76 µM (active)
same,IC50,[14],2.97 µM (active)
same,IC50,[3],2.52 µM (active)
same,IC50,[15],5.78 µM (active)
same,IC50,[16],15.9 µM (active)
COc1cccc2c1[C@@H]1CN(CCCCn3c(=O)[nH]c4c(sc5ncc(-c6ccccc6)nc54)c3=O)C[C@@H]1CO2 [FIDUXOSIN HYDROCHLORIDE],IC50,[17],24.7 µM (inactive)
same,IC50,[18],13.2 µM (active)
CN(C)CCCNc1c2c(nc3ccccc13)CCC2,AC50,[19],20.8 µM (active)
same,AC50,[20],4.86 µM (active)
O=[N+]([O-])c1ccccc1-c1nc(-c2ccc(Br)o2)no1,EC50,[21],28.2 µM (inactive)
same,IC50,Protein skinhead-1,69.1 µM (inactive)
same,EC50,[22],0.302 µM (active)
same,EC50,[23],< 0.1 µM (active)
same,EC50,[24],4.88 µM (active)
same,EC50,[25],0.252 µM (active)
same,EC50,[26],0.364 µM (active)
same,EC50,H4,> 120 µM (not active)
